Source: PubChem BioAssay (NCI)
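Tested at 5 concentrations; 48 h exposure; 96-well plates; endpoints linearly interpolated, else capped at highest concentration. Here, GI50 denotes the concentration required for 50% inhibition of growth. TGI is the concentration that stops growth completely.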

Experiments:
Experiment in all cases: inhibition of tumour cell growth, NCI panel, 48 h
[1] = test system: TK-10 renal
[2] = test system: HOP-92 NSCLC
[3] = test system: SR leukemia
[4] = test system: HL-60(TB) leukemia
[5] = test system: NCI-H460 lung
[6] = test system: LOX IMVI melanoma
[7] = test system: ACHN renal
[8] = test system: SN12C renal

SMILES: Cc1cccc(C2SCc3nc4ccccc4n32)c1 (stereo not drawn)
- TGI [1]: 56.8 µM
- TGI [2]: 47.9 µM
- TGI [3]: 64.2 µM
- TGI [4]: 33.5 µM
- TGI [5]: > 100 µM
- TGI [6]: > 100 µM
- TGI [7]: > 100 µM
- TGI [8]: 96.8 µM

SMILES: CCOC(=O)C(=O)CC1=Nc2ccccc2SC(c2cccc(C)c2)C1 (stereo not drawn)
- TGI [2]: 32 µM
- TGI [3]: 60.5 µM
- TGI [5]: 36.4 µM
- TGI [7]: 30.3 µM
- TGI [8]: 31.2 µM

SMILES: COC(=O)N/N=C(\C)c1c(O)cc(C)oc1=O
- TGI [1]: > 100 µM
- TGI [2]: > 100 µM
- TGI [3]: > 100 µM
- TGI [4]: > 100 µM
- TGI [5]: > 100 µM
- TGI [6]: 44.5 µM
- TGI [7]: > 100 µM
- TGI [8]: > 100 µM

SMILES: CCOP(=O)(OCC)C1CCCOC1=O (stereo not drawn)
- TGI [1]: > 100 µM
- TGI [4]: > 100 µM
- TGI [5]: > 100 µM
- TGI [6]: > 100 µM
- TGI [7]: > 100 µM
- TGI [8]: > 100 µM

SMILES: O=C([CH-]C(=O)c1ccccc1)c1ccccc1.[CH-]1CCCCC1.[CH-]1CCCCC1.[CH-]1CCCCC1.[Sn+4]
- GI50 [1]: 12.1 µM
- TGI [1]: 26.1 µM
- GI50 [4]: 2.28 µM
- TGI [4]: 6.59 µM
- GI50 [5]: 8.88 µM
- GI50 [6]: 4.61 µM
- TGI [6]: 18.9 µM
- GI50 [7]: 13.8 µM
- TGI [7]: 31.9 µM
- GI50 [8]: 4.35 µM
- TGI [8]: 16.1 µM

SMILES: O=[N+]([O-])C(/C=N/Nc1ccccc1)/C=N/Nc1ccccc1
- TGI [1]: > 100 µM
- TGI [2]: > 100 µM
- TGI [4]: > 100 µM
- TGI [5]: > 100 µM
- TGI [6]: > 100 µM
- TGI [7]: > 100 µM
- TGI [8]: > 100 µM

SMILES: COCN1COCN=C1NC#N
- TGI [1]: > 100 µM
- TGI [2]: > 100 µM
- TGI [3]: > 100 µM
- TGI [4]: > 100 µM
- TGI [5]: > 100 µM
- TGI [7]: > 100 µM
- TGI [8]: > 100 µM

SMILES: O=C1N2Cc3c4ccc5c3CN3C(=O)N6Cc7c(ccc(c7CN1C6(c1ccccc1)C23c1ccccc1)OCCOCCNCCOCCO4)OCCOCCNCCOCCO5 (stereo not drawn)
- TGI [1]: 56 µM
- TGI [2]: 57.4 µM
- TGI [3]: > 100 µM
- TGI [5]: > 100 µM
- TGI [7]: 47.9 µM
- TGI [8]: 89.1 µM

SMILES: O=c1[nH]c2ccccc2nc1/C=C(\O)c1ccccc1O
- TGI [1]: > 100 µM
- TGI [2]: > 100 µM
- TGI [3]: > 100 µM
- TGI [4]: > 100 µM
- TGI [5]: > 100 µM
- TGI [6]: > 100 µM
- TGI [7]: > 100 µM
- TGI [8]: > 100 µM

SMILES: CN(C)CCNC(=O)c1cccc2cc3c(Cl)cccc3nc12
- TGI [1]: 7.66 µM
- TGI [2]: 4.28 µM
- TGI [3]: 14.8 µM
- TGI [6]: 2.33 µM
- TGI [7]: 2.35 µM
- TGI [8]: 3.95 µM

SMILES: ClC/C=C/COC1CCCCO1 (stereo not drawn)
- TGI [1]: > 100 µM
- TGI [2]: > 100 µM
- TGI [3]: 54.2 µM
- TGI [4]: 51.4 µM
- TGI [5]: > 100 µM
- TGI [7]: > 100 µM
- TGI [8]: > 100 µM

SMILES: Cc1cccc(C)c1NC(=O)C1=NC(=S)NC(c2ccccc2)C1c1nc2ccccc2s1 (stereo not drawn)
- TGI [1]: > 100 µM
- TGI [2]: > 100 µM
- TGI [3]: > 100 µM
- TGI [4]: > 100 µM
- TGI [5]: > 100 µM
- TGI [7]: > 100 µM
- TGI [8]: > 100 µM

SMILES: O=C1C(c2ccc(Br)cc2)=[N+]([O-])c2ccccc21
- TGI [1]: 29.7 µM
- TGI [2]: 20.1 µM
- TGI [4]: 12.4 µM
- TGI [5]: 34.8 µM
- TGI [6]: 21.7 µM
- TGI [7]: 26.2 µM
- TGI [8]: 29.6 µM

SMILES: O=[N+]([O-])C=C(c1ccc(Cl)cc1)c1ccc(Cl)cc1
- TGI [1]: 33.5 µM
- TGI [3]: 54 µM
- TGI [4]: 44 µM
- TGI [5]: 36.7 µM
- TGI [6]: 25.5 µM
- TGI [7]: 30.5 µM
- TGI [8]: 35.6 µM

SMILES: CC(=O)[O-].Cn1ccnc1CNCc1nccn1C.[Cu+2].[O-][Cl+3]([O-])([O-])[O-]
- GI50 [1]: > 100 µM
- TGI [1]: > 100 µM
- GI50 [4]: > 100 µM
- TGI [4]: > 100 µM
- GI50 [5]: 51.2 µM
- TGI [5]: > 100 µM
- GI50 [6]: > 100 µM
- TGI [6]: > 100 µM
- GI50 [8]: > 100 µM
- TGI [8]: > 100 µM

SMILES: CN(c1ccc(C(=O)c2ccc(N(C)S(C)(=O)=O)cc2)cc1)S(C)(=O)=O
- TGI [1]: > 100 µM
- TGI [2]: > 100 µM
- TGI [3]: > 100 µM
- TGI [4]: > 100 µM
- TGI [5]: > 100 µM
- TGI [7]: > 100 µM
- TGI [8]: > 100 µM

SMILES: CCCCCCCCCCCCCC[N+](C)(C)CCCCCCCCCCCCCC
- GI50 [1]: 2.53 µM
- TGI [1]: 7.03 µM
- GI50 [3]: 2.46 µM
- TGI [3]: 9.96 µM
- GI50 [4]: 2.07 µM
- TGI [4]: 4.89 µM
- GI50 [7]: 2.62 µM
- TGI [7]: 6.85 µM

SMILES: CC1/C(=N\O)CC(c2ccccc2)N(C)C1c1ccccc1 (stereo not drawn)
- TGI [1]: > 100 µM
- TGI [2]: > 100 µM
- TGI [4]: > 100 µM
- TGI [5]: > 100 µM
- TGI [6]: > 100 µM
- TGI [7]: > 100 µM
- TGI [8]: > 100 µM

SMILES: COC(=O)C1Cc2c(n(C)c3ccccc23)C(CCC(=O)O)N1Cc1ccccc1 (stereo not drawn)
- TGI [1]: > 100 µM
- TGI [2]: 60.2 µM
- TGI [4]: > 100 µM
- TGI [5]: 80.7 µM
- TGI [6]: > 100 µM
- TGI [7]: 81.8 µM
- TGI [8]: > 100 µM

SMILES: C[N+](C)(C)CC(=O)N/N=C(/C(=O)Nc1ccc(Br)cc1)C1C(=O)NC(=O)NC1=O
- TGI [1]: > 100 µM
- TGI [3]: > 100 µM
- TGI [4]: > 100 µM
- TGI [5]: > 100 µM
- TGI [6]: > 100 µM
- TGI [7]: > 100 µM
- TGI [8]: > 100 µM

SMILES: O=C(O)[C@H](NS(=O)(=O)c1ccc(F)cc1)c1ccccc1
- TGI [1]: > 100 µM
- TGI [5]: > 100 µM
- TGI [6]: > 100 µM
- TGI [7]: > 100 µM
- TGI [8]: > 100 µM

SMILES: CCOC(=O)/C(=C/c1ccc(C(=O)OC)cc1)N(CC)CC
- TGI [1]: > 100 µM
- TGI [2]: > 100 µM
- TGI [3]: > 100 µM
- TGI [4]: 69.4 µM
- TGI [6]: > 100 µM
- TGI [7]: > 100 µM
- TGI [8]: > 100 µM
